Laboratory results published in publication PMC10444810, “Induction of open-form bile canaliculus formation by hepatocytes for evaluation of biliary drug excretion” (Communications Biology, 2023).
“And” between values parts separate entries of the source, which are not always exact repeats. Equal values may be shown once. Where a name gives a salt, the structure may show the parent alone. Read-outs that look alike come from different tables or passages of the source.

How the values were obtained:
[1] = test system: BSEP
[2] = test system: icHep; conditions: for intracellular amount on DFP treatment: not told
[3] = test system: BSEP; design: method as in PMID 23877105; conditions: SCHs; cited from earlier work
[4] = test system: BSEP; conditions: cited from earlier work
[5] = biological target: T1, OATP1B1 (Homo sapiens, UniProt Q9Y6L6)
T1 sequence (Q9Y6L6 1-691): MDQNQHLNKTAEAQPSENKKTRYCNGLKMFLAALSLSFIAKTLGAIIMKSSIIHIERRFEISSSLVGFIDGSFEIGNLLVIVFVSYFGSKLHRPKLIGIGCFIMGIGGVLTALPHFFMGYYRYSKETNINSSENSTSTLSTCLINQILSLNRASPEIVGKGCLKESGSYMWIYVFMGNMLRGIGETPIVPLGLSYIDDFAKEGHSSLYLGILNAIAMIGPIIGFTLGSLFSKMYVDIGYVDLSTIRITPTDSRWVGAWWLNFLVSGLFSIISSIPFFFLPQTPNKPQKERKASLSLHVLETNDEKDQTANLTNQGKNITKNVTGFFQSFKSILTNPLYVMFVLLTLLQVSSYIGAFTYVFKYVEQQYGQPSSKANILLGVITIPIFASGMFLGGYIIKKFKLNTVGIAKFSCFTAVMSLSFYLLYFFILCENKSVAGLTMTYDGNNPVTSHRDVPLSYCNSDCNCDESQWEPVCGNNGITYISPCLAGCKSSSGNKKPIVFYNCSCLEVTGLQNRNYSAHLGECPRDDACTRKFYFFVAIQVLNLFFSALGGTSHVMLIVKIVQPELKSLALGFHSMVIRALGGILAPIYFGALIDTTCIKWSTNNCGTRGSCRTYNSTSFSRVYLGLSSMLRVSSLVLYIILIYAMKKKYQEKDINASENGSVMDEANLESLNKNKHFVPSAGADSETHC

[6] = biological target: T2, MRP2 (Homo sapiens, UniProt Q92887); conditions: not told
[7] = biological target: T3, OCT1 (Homo sapiens, UniProt O15245); conditions: for Uptake / CLuptake: single wells; for CLuptake, Mean: mean of wells
T3 sequence (O15245 1-554): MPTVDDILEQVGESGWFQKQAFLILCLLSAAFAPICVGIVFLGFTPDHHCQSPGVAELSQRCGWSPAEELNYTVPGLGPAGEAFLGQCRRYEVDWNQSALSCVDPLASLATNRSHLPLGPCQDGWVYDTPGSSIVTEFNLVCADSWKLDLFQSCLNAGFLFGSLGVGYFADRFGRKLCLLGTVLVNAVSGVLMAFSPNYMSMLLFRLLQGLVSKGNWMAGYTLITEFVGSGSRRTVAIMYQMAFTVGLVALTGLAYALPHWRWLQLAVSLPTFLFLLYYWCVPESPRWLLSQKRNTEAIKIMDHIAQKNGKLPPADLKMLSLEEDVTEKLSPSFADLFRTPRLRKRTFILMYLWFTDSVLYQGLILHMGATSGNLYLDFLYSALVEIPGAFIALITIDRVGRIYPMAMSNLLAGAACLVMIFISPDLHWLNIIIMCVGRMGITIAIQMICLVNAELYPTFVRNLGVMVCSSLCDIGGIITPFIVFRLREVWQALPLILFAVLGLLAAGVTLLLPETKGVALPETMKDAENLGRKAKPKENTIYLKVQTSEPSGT

[8] = icHep permeation assay (sinusoidal to bile side) to estimate drug biliary excretion clearance; conditions: human
[9] = cited from earlier work; for Observed in vivo CLbile: human
[10] = blood/plasma concentration ratio, cited from earlier work
[11] = Reported human in vivo biliary excretion clearance and intrinsic clearance estimated from it (Eq. 4)
[12] = cited from earlier work
[13] = test system: sandwich-cultured PXB-cells; conditions: human, 1 μM
[14] = biological target: T2, MRP2; experiment: MRP2-mediated biliary transport of CDF (CDFDA permeation assay); conditions: benzbromarone 100 μM, icHep
[15] = Biliary excretion clearance, in vitro, observed, CLbile, int, icHep (HUM181001B), CLbile,app of icHep minus control cells
[16] = reported in vivo biliary excretion clearance
[17] = estimated from observed CLbile with fp, Rb, Qh 1400 ml/min
[18] = estimated from observed in vivo CLbile with fp, Rb and Qh 1400 ml/min
[19] = unbound fraction of the plasma protein
[20] = unbound fraction, reported value

T2 sequence (Q92887 whole entry): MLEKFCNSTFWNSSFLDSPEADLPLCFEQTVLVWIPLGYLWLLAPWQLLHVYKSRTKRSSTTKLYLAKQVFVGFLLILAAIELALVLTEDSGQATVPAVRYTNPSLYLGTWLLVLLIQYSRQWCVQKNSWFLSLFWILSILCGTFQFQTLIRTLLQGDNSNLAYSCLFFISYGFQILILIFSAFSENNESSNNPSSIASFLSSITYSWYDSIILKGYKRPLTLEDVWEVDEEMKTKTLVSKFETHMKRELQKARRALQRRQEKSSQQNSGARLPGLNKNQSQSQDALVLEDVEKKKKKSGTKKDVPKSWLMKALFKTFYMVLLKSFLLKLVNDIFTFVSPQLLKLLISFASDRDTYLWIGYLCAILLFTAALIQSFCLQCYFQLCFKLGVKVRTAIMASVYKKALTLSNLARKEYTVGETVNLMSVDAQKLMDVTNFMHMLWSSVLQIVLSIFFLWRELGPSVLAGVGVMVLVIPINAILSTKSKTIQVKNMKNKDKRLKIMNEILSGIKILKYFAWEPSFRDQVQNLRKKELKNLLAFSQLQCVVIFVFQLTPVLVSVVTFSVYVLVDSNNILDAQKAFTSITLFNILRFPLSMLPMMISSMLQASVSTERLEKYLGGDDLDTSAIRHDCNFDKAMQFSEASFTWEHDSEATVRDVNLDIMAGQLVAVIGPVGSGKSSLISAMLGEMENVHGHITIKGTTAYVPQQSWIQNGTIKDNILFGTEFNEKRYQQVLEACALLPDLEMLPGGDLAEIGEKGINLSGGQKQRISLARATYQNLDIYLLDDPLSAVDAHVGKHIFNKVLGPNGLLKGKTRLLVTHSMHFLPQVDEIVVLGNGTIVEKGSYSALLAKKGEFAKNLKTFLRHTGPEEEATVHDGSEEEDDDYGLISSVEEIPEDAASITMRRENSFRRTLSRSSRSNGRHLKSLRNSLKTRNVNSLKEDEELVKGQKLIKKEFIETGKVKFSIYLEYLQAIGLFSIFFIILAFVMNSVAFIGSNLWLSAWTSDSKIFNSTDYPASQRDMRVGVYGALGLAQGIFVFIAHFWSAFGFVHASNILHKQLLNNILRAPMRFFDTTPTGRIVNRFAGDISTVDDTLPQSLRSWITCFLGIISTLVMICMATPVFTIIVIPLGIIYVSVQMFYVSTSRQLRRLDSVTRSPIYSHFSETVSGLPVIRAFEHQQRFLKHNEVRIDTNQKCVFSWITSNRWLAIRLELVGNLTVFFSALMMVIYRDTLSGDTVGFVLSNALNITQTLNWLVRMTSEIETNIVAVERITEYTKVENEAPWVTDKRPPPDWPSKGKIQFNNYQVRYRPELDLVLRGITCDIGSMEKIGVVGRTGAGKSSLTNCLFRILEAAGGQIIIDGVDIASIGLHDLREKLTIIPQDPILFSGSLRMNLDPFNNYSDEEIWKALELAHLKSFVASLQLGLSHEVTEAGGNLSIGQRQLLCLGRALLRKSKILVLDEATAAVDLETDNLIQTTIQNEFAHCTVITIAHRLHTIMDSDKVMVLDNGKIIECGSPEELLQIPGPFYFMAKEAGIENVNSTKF

Row | SMILES | hepatocyte CLint at 1 μM [8] [µL/min/1e6 cells] | hepatocyte CLint at 1 μM [8, 15] [µL/min/1e6 cells] | Observed in vivo CLbile [9, 16] [mL/min] | Observed in vivo CLbile ([9]; reported value) [mL/min] | Rb ([10]; reported value) | Rb [10] | Observed in vivo CLbile, int [11, 17] [mL/min] | Observed in vivo CLbile, int [11, 18] [mL/min] | fp [12, 19] | fp [12, 20] | Predicted in vivo CLbile, int, Mean ([13]; 2 min) [mL/min] | BEI (%) Mean ([13]; 5 min) [%] | Predicted in vivo CLbile, int, Mean ([13]; 5 min) [mL/min] | BEI (%) Mean ([13]; 10 min) [%] | Predicted in vivo CLbile, int, Mean ([13]; 10 min) [mL/min] | Predicted in vivo CLbile, int, Mean ([13]; 20 min) [mL/min] | also measured
1 | CCOc1nc2cccc(C(=O)OC(C)OC(=O)OC3CCCCC3)c2n1Cc1ccc(-c2ccccc2-c2nnn[nH]2)cc1 (stereo not drawn) [CIL, candesartan cilexetil] |  |  |  |  |  |  |  |  |  |  |  |  |  |  |  |  | effect on biliary excretion clearance of taurocholate [1]: decreased; effect on biliary excretion clearance of BSEP substrate taurocholate ([1]; CIL (10 μM) alone, taurocholate 1 μM, 120 min): did not affect; effect on intracellular accumulation of taurocholate [2]: increased; intracellular amount on DFP treatment [2]: increased; BSEP inhibition [3]: inhibited
2 | Cc1c(C)c2c(c(C)c1OS(=O)(=O)O)CCC(C)(COc1ccc(CC3SC(=O)NC3=O)cc1)O2 (stereo not drawn) [troglitazone sulfate] |  |  |  |  |  |  |  |  |  |  |  |  |  |  |  |  | IC50 [4]: 4.2 µM
3 | C[C@]12CC[C@@H]3c4ccc(O)cc4CC[C@H]3[C@@H]1CC[C@@H]2O[C@@H]1O[C@H](C(=O)O)[C@@H](O)[C@H](O)[C@H]1O [E217βG] |  |  |  |  |  |  |  |  |  |  |  |  |  |  |  |  | difference in OATP1B1 substrate uptake clearance between two donors [5]: 2.85 fold; permeability to the bile side in icHep compared to the control [6]: significantly increased
4 | CN(C)C(=N)N=C(N)N [Metformin] |  |  |  |  |  |  |  |  |  |  |  |  |  |  |  |  | Uptake ([7]; icHep (HUM181001B), incubation time 0.5 min): 2.903 ul/106 cells and 3.372 ul/106 cells and 2.496 ul/106 cells and 3.301 ul/106 cells; Uptake ([7]; icHep (HUM181001B), incubation time 1 min): 5.838 ul/106 cells and 5.176 ul/106 cells and 6.237 ul/106 cells and 6.072 ul/106 cells; Uptake ([7]; icHep (HUM181001B), incubation time 2 min): 12.5578 ul/106 cells and 11.8508 ul/106 cells and 13.1191 ul/106 cells and 15.8618 ul/106 cells; Uptake ([7]; icHep (HUM181001B), incubation time 5 min): 32.1771 ul/106 cells and 34.4238 ul/106 cells and 29.3661 ul/106 cells and 33.2229 ul/106 cells; CLuptake, Mean ([7]; icHep (HUM181001B)): 7.52 ul/min/106 cells; CLuptake ([7]; icHep (HUM181001B)): 6.72 ul/min/106 cells and 6.68 ul/min/106 cells and 6.88 ul/min/106 cells and 9.79 ul/min/106 cells; Uptake ([7]; icHep (JFC), incubation time 0.5 min): 3.7065 ul/106 cells and 4.783 ul/106 cells and 4.1818 ul/106 cells and 4.442 ul/106 cells; Uptake ([7]; icHep (JFC), incubation time 1 min): 7.468 ul/106 cells and 9.292 ul/106 cells and 7.7376 ul/106 cells and 10.2512 ul/106 cells; Uptake ([7]; icHep (JFC), incubation time 2 min): 17.213 ul/106 cells and 18.5255 ul/106 cells and 16.0946 ul/106 cells and 17.048 ul/106 cells; Uptake ([7]; icHep (JFC), incubation time 5 min): 50.6594 ul/106 cells and 43.7801 ul/106 cells and 38.495 ul/106 cells and 43.9119 ul/106 cells; CLuptake, Mean ([7]; icHep (JFC)): 8.82 ul/min/106 cells; CLuptake ([7]; icHep (JFC)): 7.5 ul/min/106 cells and 9.0 ul/min/106 cells and 7.1 ul/min/106 cells and 11.6 ul/min/106 cells
5 | CN/C(=N/CCSCc1nc[nH]c1C)NC#N [Cimetidine, cimetidine] | 0.869 ± 0.0152 | 0.453 ± 0.163 | 9.9 | 9.9 | 0.97 | 0.97 | 12.3 | 12.3 | 0.81 | 0.81 | 2714 | 32.5 | 478 | 19.7 | 126 | 60.3 | fp, unbound fraction of the plasma protein ([12]; reported value): 0.81[32]; BEI (%) Mean ([13]; 2 min): 48.1%; BEI (%) Mean ([13]; 20 min): 19.6%
6 | CC[C@H]1OC(=O)[C@H](C)[C@@H](O[C@H]2C[C@@](C)(OC)[C@@H](O)[C@H](C)O2)[C@H](C)[C@@H](O[C@@H]2O[C@H](C)C[C@H](N(C)C)[C@H]2O)[C@](C)(O)C[C@@H](C)C(=O)[C@H](C)[C@@H](O)[C@]1(C)O [Erythromycin, erythromycin] | 0.732 ± 0.0721 | 0.793 ± 0.0723 | 80.3 | 80.3 | 0.75 | 0.75 | 285 | 285 | 0.305 | 0.305 | 2262 | 22.5 | 289 | 30.0 | 238 | 310 | Biliary excretion clearance, in vivo, observed, CLbile ([9]; in vivo): 80.3[36] ml/min; fp, unbound fraction of the plasma protein ([12]; plasma): 0.305[37]; BEI (%) Mean ([13]; 2 min): 46.3%; BEI (%) Mean ([13]; 20 min): 54.8%
7 | CCc1oc2ccccc2c1C(=O)c1cc(Br)c(O)c(Br)c1 [benzbromarone] |  |  |  |  |  |  |  |  |  |  |  |  |  |  |  |  | effect of MRP2 inhibitor on the increased appearance of CDF on the bile side [14]: reduced this increase to the same level as the control group
8 | Cc1c(C)c2c(c(C)c1O)CCC(C)(COc1ccc(CC3SC(=O)NC3=O)cc1)O2 (stereo not drawn) [troglitazone] |  |  |  |  |  |  |  |  |  |  |  |  |  |  |  |  | IC50 [4]: 2.3 µM
9 | CN(Cc1cnc2nc(N)nc(N)c2n1)c1ccc(C(=O)N[C@@H](CCC(=O)O)C(=O)O)cc1 [Methotrexate, methotrexate] | 1.11 ± 0.217 | 0.73 ± 0.268 | 39.9 | 39.9 | 0.79 | 0.79 | 90.0 | 90.0 | 0.46 | 0.46 | 700 | 14.8 | 179 | 18.9 | 126 | 172 | fp, unbound fraction of the plasma protein ([12]; reported value): 0.46[40]
10 | CC[C@]1(O)C[C@H]2CN(CCc3c([nH]c4ccccc34)[C@@](C(=O)OC)(c3cc4c(cc3OC)N(C=O)[C@H]3[C@@](O)(C(=O)OC)[C@H](OC(C)=O)[C@]5(CC)C=CCN6CC[C@]43[C@@H]65)C2)C1 [Vincristine, vincristine] | 0.173 ± 0.052 | 0.128 ± 0.0438 | 12.9 | 12.9 | 1.2 | 1.2 | 25.5 | 25.5 | 0.51 | 0.51 | 329 | 16.5 | 199 | 26.3 | 190 | 168 | fp, unbound fraction of the plasma protein ([12]; reported value): 0.51[47]; BEI (%) Mean ([13]; 2 min): 11.7%; BEI (%) Mean ([13]; 20 min): 40.4%
11 | CCOc1nc2cccc(C(=O)O)c2n1Cc1ccc(-c2ccccc2-c2nnn[nH]2)cc1 [CAN, candesartan] |  |  |  |  |  |  |  |  |  |  |  |  |  |  |  |  | intracellular amount on DFP treatment [2]: decreased; BSEP inhibition [3]: not
